From article PMC6327044, “A chemical biology screen identifies a vulnerability of neuroendocrine cancer cells to SQLE inhibition” (Nature Communications, 2019)

Legend:
Test in all cases: cells
Parameters in all cases: species or system panel of 482 human cancer cell lines; ATPLite luminescence growth inhibition after treatment, nine-point dilution curve, 482 cancer cell lines, 384-well
Settings in all cases: 72 h, recommended growth medium
[1] = test system: SKMEL3_SKIN
How it was run: (§1)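 Growth inhibition was measured across a panel of 482 cancer cell lines. Cells were plated at 500 cells per well in recommended growth media in black, tissue culture treated 384-well plates, centrifuged to equilibrate, and incubated 24 h before dosing. Compounds were tested as nine-point dilution curves for 72 h, with viability read by ATPLite luminescence relative to DMSO-treated controls.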

[2] = test system: TE11_OESOPHAGUS
How it was run: as §1

[3] = test system: KMS20_HAEMATOPOIETIC_AND_LYMPHOID_TISSUE
How it was run: as §1

[4] = test system: NCIH2110_LUNG
How it was run: as §1

[5] = test system: HCC95_LUNG
How it was run: as §1

[6] = test system: TE6_OESOPHAGUS
How it was run: as §1

[7] = test system: TE14_OESOPHAGUS
How it was run: as §1

[8] = test system: SUDHL4_HAEMATOPOIETIC_AND_LYMPHOID_TISSUE
How it was run: as §1

[9] = test system: KG1_HAEMATOPOIETIC_AND_LYMPHOID_TISSUE
How it was run: as §1

[10] = test system: NCIH1155_LUNG
How it was run: as §1

[11] = test system: JHH5_LIVER
How it was run: as §1

[12] = test system: NCIN87_STOMACH
How it was run: as §1

[13] = test system: KURAMOCHI_OVARY
How it was run: as §1

[14] = test system: KMS34_HAEMATOPOIETIC_AND_LYMPHOID_TISSUE
How it was run: as §1

[15] = test system: CHP126_AUTONOMIC_GANGLIA
How it was run: as §1

[16] = test system: HCC1500_BREAST
How it was run: as §1

[17] = test system: AMO1_HAEMATOPOIETIC_AND_LYMPHOID_TISSUE
How it was run: as §1

- GI50 [1]: 0.263 µM
- GI50 [5]: 0.134 µM
- GI50 [8]: 10.6 µM
- GI50 [16]: 1.48 µM
Structure (SMILES): CCN(C/C=C/C#CC(C)(C)C)Cc1cccc(OCc2cc(-c3ccsc3)cs2)c1 [NB-598]
- GI50 [2]: 8.58 µM
- GI50 [3]: 6.54 µM
- GI50 [4]: 36.2 µM
- GI50 [6]: 9.28 µM
- GI50 [7]: 164 µM
- GI50 [9]: 23.9 µM
- GI50 [10]: 0.00517 µM
- GI50 [11]: 42.7 µM
- GI50 [12]: 9.65 µM
- GI50 [13]: 52 µM
- GI50 [14]: 2.07 µM
- GI50 [15]: 0.0382 µM
- GI50 [17]: 0.032 µM
